{
  "source": "ChEMBL document CHEMBL3877316",
  "about": "“Synthesis of pharmacologically important naphthoquinones and anticancer activity of 2-benzyllawsone through DNA topoisomerase-II inhibition” (Bioorg Med Chem, 2017)",
  "type_in_all_cases": "organism-based",
  "conditions_in_all_cases": "in vivo, 168 h",
  "key": {"Mus musculus [1]": {"tested_on": "Mus musculus", "assay": "Acute toxicity in Swiss albino mouse assessed as serum haemoglobin level at 1000 mg/kg, po qd administered as single dose for 7 days (reference value: 13.29 +/- 0.46 g/dl)"}, "Mus musculus [2]": {"tested_on": "Mus musculus", "assay": "Acute toxicity in Swiss albino mouse assessed as serum WBC level at 5 mg/kg, po qd administered as single dose for 7 days (reference value: 8.64 +/- 0.42 10^3/mm3)"}, "Mus musculus [3]": {"tested_on": "Mus musculus", "assay": "Acute toxicity in Swiss albino mouse assessed as changes in gait up to 1000 mg/kg, po qd administered as single dose for 7 days"}, "Mus musculus [4]": {"tested_on": "Mus musculus", "assay": "Acute toxicity in Swiss albino mouse assessed as serum WBC level at 50 mg/kg, po qd administered as single dose for 7 days (reference value: 8.64 +/- 0.42 10^3/mm3)"}, "Mus musculus [5]": {"tested_on": "Mus musculus", "assay": "Acute toxicity in Swiss albino mouse assessed as changes in absolute weight of heart up to 1000 mg/kg, po qd administered as single dose for 7 days"}, "Mus musculus [6]": {"tested_on": "Mus musculus", "assay": "Acute toxicity in Swiss albino mouse assessed as changes in relative weight of brain up to 1000 mg/kg, po qd administered as single dose for 7 days"}},
  "data": [
    {"smiles": "O=C1C=C(OCc2ccccc2)C(=O)c2ccccc21", "values": [
      {"measurement": "Activity", "setting": "Mus musculus [1]", "value": 13.28, "unit": "g/dL"},
      {"measurement": "Activity", "setting": "Mus musculus [2]", "value": 8.66, "unit": "×10³ /mm3"},
      {"measurement": "Activity", "setting": "Mus musculus [3]", "value": "Non-Toxic"},
      {"measurement": "Activity", "setting": "Mus musculus [4]", "value": 8.38, "unit": "×10³ /mm3"},
      {"measurement": "Activity", "setting": "Mus musculus [5]", "value": "Non-Toxic"},
      {"measurement": "Activity", "setting": "Mus musculus [6]", "value": "Non-Toxic"}
    ]}
  ]
}
